Each structure is given as a SMILES string.

This test concerns the target Acetylcholinesterase (Electrophorus electricus, UniProt O42275).

Acetylcholinesterase, sequence (O42275 whole entry): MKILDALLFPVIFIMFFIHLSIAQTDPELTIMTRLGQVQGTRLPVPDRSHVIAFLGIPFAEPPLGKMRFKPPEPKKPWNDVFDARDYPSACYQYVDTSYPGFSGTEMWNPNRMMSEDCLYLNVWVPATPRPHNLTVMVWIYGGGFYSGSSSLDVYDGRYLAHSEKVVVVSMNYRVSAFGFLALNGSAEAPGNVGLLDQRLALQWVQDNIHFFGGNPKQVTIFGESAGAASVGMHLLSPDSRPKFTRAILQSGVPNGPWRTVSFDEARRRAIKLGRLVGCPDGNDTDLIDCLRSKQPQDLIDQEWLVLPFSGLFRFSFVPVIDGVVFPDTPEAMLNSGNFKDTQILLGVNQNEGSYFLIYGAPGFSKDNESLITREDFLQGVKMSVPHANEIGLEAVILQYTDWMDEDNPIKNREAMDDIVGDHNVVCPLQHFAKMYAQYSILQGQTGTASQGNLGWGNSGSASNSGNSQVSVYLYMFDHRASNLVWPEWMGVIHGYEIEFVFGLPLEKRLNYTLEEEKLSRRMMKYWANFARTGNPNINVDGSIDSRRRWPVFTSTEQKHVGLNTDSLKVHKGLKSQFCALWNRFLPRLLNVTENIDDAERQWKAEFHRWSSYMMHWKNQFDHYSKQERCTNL
Description: Inhibition of Electrophorus electricus acetylcholinesterase using acetylthiocholineiodide as substrate measured at 30 secs intervals over 9 mins by Ellman's colorimetric assay

As a reminder, the IC50 is the concentration that gives 50% inhibition. The low end stands for greater potency, the high end for weaker potency. As to `C#Cc1ccc(NC(=O)OCC[Si](C)(C)C)cc1`, the IC50 was 34.4 µM. The molecule `C#Cc1ccc(OC(=O)OCCC(C)(C)C)cc1` gave an IC50 of 59 µM.

The values are drawn from ChEMBL document CHEMBL3632557, “Ethynylphenyl carbonates and carbamates as dual-action acetylcholinesterase inhibitors and anti-inflammatory agents” (Bioorg Med Chem Lett, 2015).
